{"source": "patent US10251861B2", "about": "“Methods for treating burn and scar injury using tocotrienol compositions” (Ohio State Innovation Foundation, priority 2012, dated 2019)", "key": {"IKBa kinase (IKK)": {"system": "IKBa kinase (IKK)", "conditions": "cited from earlier work"}, "Akt": {"system": "Akt", "conditions": "cited from earlier work"}, "NF-KB activation": {"system": "NF-KB activation", "conditions": "cited from earlier work; for tumor necrosis factor a (TNF-a)-induced NF-KB activation: similar dose of both compounds"}, "IL-1 and IL-6 in serum": {"system": "IL-1 and IL-6 in serum", "conditions": "treated rats; vs before nicotine and tocotrienol treatment; cited from earlier work"}, "[1]": {"assay": "Ongoing IRB protocol 200500034, oral TCT supplementation before surgery", "assay_type": "in vivo, human", "experimental": "In this protocol, patients are being supplemented 200 mg TCT twice a day for a minimum of 4 weeks prior to surgery. The maximum supplementation has been for over a year (currently on-going supplementation)\n(§1) The inventors have also observed that oral supplementation in animals results in enhancement of tocotrienol in tissues such as skin, brain, lung etc. Levels of tocotrienol in human tissues following supplementation is currently being investigated by the inventors' laboratory (IRB protocol 200500034). The patients in the inventors' ongoing study are being orally supplemented with 200 mg twice a day. Recently, pharmacokinetic studies have been performed where humans have been orally supplemented with tocotrienol (dose: 692 mg). Based on this work and the inventors' current study, the inventors plan to use (200×2=400 mg/day; note that for alpha-tocopherol 1 mg=1.51 U) for the inventors' study.\nIn this protocol, patients are being supplemented 200 mg TCT twice a day for a minimum of 4 weeks prior to surgery.\nIn this protocol, patients are being supplemented 200 mg TCT twice a day for a minimum of 4 weeks prior to surgery. The maximum supplementation has been for over a year (currently on-going supplementation)."}, "HMG-CoA reductase": {"molecular_target": "T1, HMG-CoA reductase (Homo sapiens, UniProt P04035)", "T1 sequence (P04035 1-888)": "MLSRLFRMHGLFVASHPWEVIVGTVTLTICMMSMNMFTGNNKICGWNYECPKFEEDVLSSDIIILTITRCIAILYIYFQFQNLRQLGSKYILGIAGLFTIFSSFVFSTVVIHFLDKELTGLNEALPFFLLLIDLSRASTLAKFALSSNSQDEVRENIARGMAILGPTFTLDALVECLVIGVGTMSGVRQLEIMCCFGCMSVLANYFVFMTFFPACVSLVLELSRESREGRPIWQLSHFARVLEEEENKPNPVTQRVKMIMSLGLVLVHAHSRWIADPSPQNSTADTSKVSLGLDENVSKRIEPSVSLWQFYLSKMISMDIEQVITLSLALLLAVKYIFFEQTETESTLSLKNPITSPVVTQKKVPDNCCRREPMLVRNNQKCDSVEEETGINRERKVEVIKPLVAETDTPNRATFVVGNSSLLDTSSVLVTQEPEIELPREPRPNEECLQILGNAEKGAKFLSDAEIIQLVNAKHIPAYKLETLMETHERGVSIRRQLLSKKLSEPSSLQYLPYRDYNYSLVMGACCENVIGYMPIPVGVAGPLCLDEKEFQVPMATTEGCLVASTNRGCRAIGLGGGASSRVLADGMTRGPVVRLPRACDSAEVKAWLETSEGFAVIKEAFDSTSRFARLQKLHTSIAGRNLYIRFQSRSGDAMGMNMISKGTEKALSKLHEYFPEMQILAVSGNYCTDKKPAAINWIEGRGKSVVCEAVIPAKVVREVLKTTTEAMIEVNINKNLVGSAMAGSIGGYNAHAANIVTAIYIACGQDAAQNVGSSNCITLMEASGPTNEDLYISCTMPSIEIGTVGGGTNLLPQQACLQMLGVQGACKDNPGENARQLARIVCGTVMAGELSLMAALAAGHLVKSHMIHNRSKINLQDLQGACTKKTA", "conditions": "micromolar amounts; cited from earlier work"}, "[2]": {"assay": "Alpha-tocotrienol content in burn scar tissue (FIG. 1B)", "assay_type": "in vivo", "conditions": "topical treatment vs placebo; skin 65 days after burn injury; n=8; p<0.05", "experimental": "(§2) FIG. 1A-FIG. 1D. Topical vitamin E alpha-tocotrienol improves scar outcome. Alpha-tocotrienol content and scar outcomes were assessed in skin 65 days after burn injury. Representative placebo and T3-treated burn scars depicted (A) (scale bar=1 cm). […] Color (C) and contour (D) were judged by blinded reviewers according to their respective 5-point scales. […] Data are mean+SD (n=8); *p<0.05."}, "burn-induced scar": {"system": "burn-induced scar", "assay": "Burn-induced scar outcome after topical tocotrienol (FIG. 1)", "assay_type": "in vivo", "conditions": "topical treatment vs placebo; 65 days after burn injury; n=8; p<0.05", "experimental": "as §2"}, "[3]": {"system": "adhesion molecules (ICAM, VCAM, and E-selectin)", "conditions": "compared among forms of vitamin E; cited from earlier work"}, "[4]": {"assay": "Oral tocotrienol supplementation in animals, tissue levels", "assay_type": "in vivo", "experimental": "as §1"}, "[5]": {"conditions": "per day; Food and Nutrition Board of the Institute of Medicine; also printed as 1,500 IU; cited from earlier work"}}, "data": [{"molecule": "CC(C)=CCC/C(C)=C/CC/C(C)=C/CC[C@]1(C)CCc2cc(O)c(C)c(C)c2O1", "note": "[gamma-tocotrienol]", "values": [{"measurement": "TNF-induced activation of IKBa kinase (IKK)", "setting": "IKBa kinase (IKK)", "value": "inhibiting"}, {"measurement": "TNF induced Akt activation", "setting": "Akt", "value": "inhibit"}, {"measurement": "NF-KB activation induced by phorbol myristate acetate, okadaic acid, lipopolysaccharide, cigarette smoke, IL-1I, and epidermal growth factor", "setting": "NF-KB activation", "value": "abolished"}, {"measurement": "TAK 1/TAB 1-induced NF-KB dependant reporter gene expression", "setting": "NF-KB activation", "value": "inhibit"}, {"measurement": "constitutive NF-KB activation expressed by certain tumor cells", "setting": "NF-KB activation", "value": "nullified"}, {"measurement": "tumor necrosis factor a (TNF-a)-induced NF-KB activation", "setting": "NF-KB activation", "value": "completely abolished"}]}, {"molecule": "tocotrienol", "values": [{"measurement": "serum levels of IL-6", "setting": "IL-1 and IL-6 in serum", "value": "significantly lower"}, {"measurement": "related adverse effects", "setting": "[1]; 200 mg TCT twice a day, minimum 4 weeks prior to surgery, maximum over a year", "value": "no related adverse affects"}, {"measurement": "reaching the skin", "setting": "[1]; oral dosage of 400 mg per day", "value": "sufficient to reach the skin"}, {"measurement": "appearance of scars", "setting": "[1]; pre-treatment with TCT, observations from ongoing study", "value": "Improves"}, {"measurement": "activity of HMG-CoA reductase", "setting": "HMG-CoA reductase", "value": "suppress"}, {"measurement": "alpha-tocotrienol content in scar tissue", "setting": "[2]", "value": "significantly increased"}, {"measurement": "scar color, 5-point scale, blinded reviewers", "setting": "burn-induced scar", "value": "significantly improved"}, {"measurement": "scar contour, 5-point scale, blinded reviewers", "setting": "burn-induced scar", "value": "significantly improved"}, {"measurement": "reducing endothelial expression of adhesion molecules and adhesion to monocytes", "setting": "[3]", "value": "most effective"}, {"measurement": "tocotrienol in tissues such as skin, brain, lung", "setting": "[4]", "value": "enhancement"}]}, {"molecule": "Cc1c(C)c2c(c(C)c1O)CC[C@@](C)(CCC[C@H](C)CCC[C@H](C)CCCC(C)C)O2", "note": "[alpha-tocopherol]", "values": [{"measurement": "upper tolerable intake level (UL)", "setting": "[5]", "value": "1,000 mg"}]}, {"molecule": "Cc1c(O)cc2c(c1C)O[C@](C)(CCC[C@H](C)CCC[C@H](C)CCCC(C)C)CC2", "note": "[gamma-tocopherol]", "values": [{"measurement": "tumor necrosis factor a (TNF-a)-induced NF-KB activation", "setting": "NF-KB activation", "value": "no effect"}]}]}
